Assay results from patent US6365191B1, “Formulations of paclitaxel, its derivatives or its analogs entrapped into nanoparticles of polymeric micelles, process for preparing same and the use thereof” (Dabur Research Foundation, priority 1999, dated 2002).

Assay: Stability of the resulting drug solutions (paclitaxel in nanoparticles of polymeric micelles)
Type: physicochemical
Protocol: (§1) The polymer (5 mg) was dissolved in 5 ml of the diluting fluid followed by the addition of the anionic surfactant sodium deoxycholate (5 mg) to obtain a clear solution. Paclitaxel solution in absolute alcohol (20 mg/ml) was then added to the solution of polymer and the surfactant to obtain drug concentrations of 0.1, 0.15 and 0.2 mg/ml. Different diluting fluids were tried and the stability of the resulting drug solutions are tabulated below:
(§2) The polymer (5 mg) was dissolved in 5 ml of the diluting fluid followed by the addition of the anionic surfactant sodium deoxycholate (5 mg) to obtain a clear solution. Paclitaxel solution in absolute alcohol (20 mg/ml) was then added to the solution of polymer and the surfactant to get drug concentrations of 0.2, 0.25 and 0.3 mg/ml. The stability of the resulting drug solutions are tabulated below:
as §1, with “of” for “of 0.1, 0.15 and”
as §2, with “solution. pH of the resulting solution was adjusted with sodium citrate.” for “solution.”, “obtain” for “get”, “0.2” for “0.2, 0.25 and 0.3”, “Results” for “The stability of the resulting drug solutions”
The requisite amount of polymer was dissolved in 5 ml of the diluting fluid followed by the addition of requisite amount of anionic surfactant sodium deoxycholate to obtain the concentrations shown in the table below. pH of the resulting solution was adjusted to 6.4-6.8 with sodium citrate. Paclitaxel solution in absolute alcohol (20 mg/ml) was then added to the solution of polymer and the surfactant to obtain drug concentrations of 0.2 mg/ml. Results are tabulated below:
The polymer (0.625 mg) was dissolved in 5 ml of the diluting fluid followed by the addition of the anionic surfactant sodium deoxycholate to obtain a clear solution. pH of the resulting solution was adjusted to 6.4-6.8 with sodium citrate.
Paclitaxel solution in absolute alcohol (20 mg/ml) was then added to the solution of polymer and the surfactant to obtain drug concentrations of 0.2 mg/ml. Results are tabulated below:
The requisite amount of the polymer was dissolved in 5 ml of the diluting fluid followed by the addition of requisite amount of the anionic surfactant sodium deoxycholate to obtain the concentrations shown in the table below. pH of the resulting solution was adjusted to 6.4-6.8 with sodium citrate. Paclitaxel solution in absolute alcohol (20 mg/ml) was then added to the solution of polymer and the surfactant to get drug concentrations of 0.2, 0.5, 0.6, 0.7, 0.8, 2.4, 3.2, 4.0, and 10 mg/ml. Results are tabulated below:
The polymer (1.5 mg) was dissolved in 5 ml of the diluting fluid followed by the addition of the anionic surfactant sodium to obtain concentrations of 0, 0.10, 0.15, 0.20 and 0.25 mg/ml. pH of the resulting solution was adjusted to 6.4-6.8 with sodium citrate. Paclitaxel solution in absolute alcohol (20 mg/ml) was then added to the solution of polymer and the surfactant to obtain drug concentrations of 0.6 mg/ml. Results are tabulated below:
The required amount of the drug solution (3 ml) is added to the vehicle to obtain a drug concentration of 0.6 mg/ml. The perfusion fluid is stable for more than 12 hrs without any apparent signs of precipitation of drug. Stability is also indicated by the fact that more than 90% of the drug is available in solution form at the end of 24 hrs, when analyzed by HPLC.

Stability (Examples 1-9, row 1: Water for Injection, polymer 1 mg/ml, sodium DOC 1 mg/ml, paclitaxel 0.10 mg/ml, 10% loading): <1 h
Stability (Examples 1-9, row 2: Water for Injection, polymer 1 mg/ml, sodium DOC 1 mg/ml, paclitaxel 0.15 mg/ml, 15% loading): <1 h
Stability (Examples 1-9, row 3: Water for Injection, polymer 1 mg/ml, sodium DOC 1 mg/ml, paclitaxel 0.20 mg/ml, 20% loading): <1 h
Stability (Examples 1-9, row 4: Normal Saline, polymer 1 mg/ml, sodium DOC 1 mg/ml, paclitaxel 0.10 mg/ml, 10% loading): <1 h
Stability (Examples 1-9, row 5: Normal Saline, polymer 1 mg/ml, sodium DOC 1 mg/ml, paclitaxel 0.15 mg/ml, 15% loading): <1 h
Stability (Examples 1-9, row 6: Normal Saline, polymer 1 mg/ml, sodium DOC 1 mg/ml, paclitaxel 0.20 mg/ml, 20% loading): <1 h
Stability (Examples 1-9, row 7: 5% Dextrose, polymer 1 mg/ml, sodium DOC 1 mg/ml, paclitaxel 0.10 mg/ml, 10% loading): >8 h
Stability (Examples 1-9, row 8: 5% Dextrose, polymer 1 mg/ml, sodium DOC 1 mg/ml, paclitaxel 0.15 mg/ml, 15% loading): >6 h
Stability (Examples 1-9, row 9: 5% Dextrose, polymer 1 mg/ml, sodium DOC 1 mg/ml, paclitaxel 0.20 mg/ml, 20% loading): >4 h
Stability (Examples 10-12, row 1: 5% Dextrose, polymer 1 mg/ml, sodium DOC 1 mg/ml, paclitaxel 0.20 mg/ml, 20% loading): >4 h
Stability (Examples 10-12, row 2: 5% Dextrose, polymer 1 mg/ml, sodium DOC 1 mg/ml, paclitaxel 0.25 mg/ml, 25% loading): <4 h
Stability (Examples 10-12, row 3: 5% Dextrose, polymer 1 mg/ml, sodium DOC 1 mg/ml, paclitaxel 0.30 mg/ml, 30% loading): <4 h
Stability (Examples 13-14, row 1: 5% Dextrose (pH 5.1), polymer 1 mg/ml, sodium DOC 1 mg/ml, paclitaxel 0.20 mg/ml, 20% loading): >4 h
Stability (Examples 13-14, row 2: 10% Dextrose (pH 5.1), polymer 1 mg/ml, sodium DOC 1 mg/ml, paclitaxel 0.20 mg/ml, 20% loading): >6 h
Stability (Examples 15-17, row 1: 10% Dextrose (pH 3.9), polymer 1 mg/ml, sodium DOC 1 mg/ml, sodium citrate 0.00 mg/ml, pH 6.28, paclitaxel 0.20 mg/ml): <1 h
Stability (Examples 15-17, row 2: 10% Dextrose (pH 3.9), polymer 1 mg/ml, sodium DOC 1 mg/ml, sodium citrate 0.06 mg/ml, pH 6.36, paclitaxel 0.20 mg/ml): >6 h
Stability (Examples 15-17, row 3: 10% Dextrose (pH 3.9), polymer 1 mg/ml, sodium DOC 1 mg/ml, sodium citrate 0.12 mg/ml, pH 6.53, paclitaxel 0.20 mg/ml): >4 h
Stability (Examples 19-23, row 1: 10% Dextrose, polymer 1 mg/ml, sodium DOC 1 mg/ml, pH 6.45, paclitaxel 0.20 mg/ml): >6 h
Stability (Examples 19-23, row 2: 10% Dextrose, polymer 0.5 mg/ml, sodium DOC 0.5 mg/ml, pH 6.44, paclitaxel 0.20 mg/ml): >6 h
Stability (Examples 19-23, row 3: 10% Dextrose, polymer 0.25 mg/ml, sodium DOC 0.25 mg/ml, pH 6.46, paclitaxel 0.20 mg/ml): >6 h
Stability (Examples 19-23, row 4: 10% Dextrose, polymer 0.125 mg/ml, sodium DOC 0.125 mg/ml, pH 6.47, paclitaxel 0.20 mg/ml): >6 h
Stability (Examples 19-23, row 5: 10% Dextrose, polymer 0.0625 mg/ml, sodium DOC 0.0625 mg/ml, pH 6.44, paclitaxel 0.20 mg/ml): <6 h
Stability (Examples 24-27, row 1: 10% Dextrose, polymer 0.125 mg/ml, sodium DOC 0.03125 mg/ml, pH 6.4-6.8, paclitaxel 0.20 mg/ml): <1 h
Stability (Examples 24-27, row 2: 10% Dextrose, polymer 0.125 mg/ml, sodium DOC 0.0625 mg/ml, pH 6.4-6.8, paclitaxel 0.20 mg/ml): <2 h
Stability (Examples 24-27, row 3: 10% Dextrose, polymer 0.125 mg/ml, sodium DOC 0.09375 mg/ml, pH 6.4-6.8, paclitaxel 0.20 mg/ml): >6 h
Stability (Examples 24-27, row 4: 10% Dextrose, polymer 0.125 mg/ml, sodium DOC 0.125 mg/ml, pH 6.4-6.8, paclitaxel 0.20 mg/ml): >6 h
Stability (Examples 28-35: 10% Dextrose, polymer 0.125 mg/ml, sodium DOC 0.125 mg/ml, pH 6.4-6.8, paclitaxel 0.20 mg/ml): >6 h
Stability (Examples 28-35: 10% Dextrose, polymer 0.125 mg/ml, sodium DOC 0.125 mg/ml, pH 6.4-6.8, paclitaxel 0.50 mg/ml): <4 h
Stability (Examples 28-35: 10% Dextrose, polymer 0.125 mg/ml, sodium DOC 0.125 mg/ml, pH 6.4-6.8, paclitaxel 0.80 mg/ml): <2 h
Stability (Examples 28-35: 10% Dextrose, polymer 0.125 mg/ml, sodium DOC 0.125 mg/ml, pH 6.4-6.8, paclitaxel 2.4 mg/ml): <1 h
Stability (Examples 28-35: 10% Dextrose, polymer 0.125 mg/ml, sodium DOC 0.125 mg/ml, pH 6.4-6.8, paclitaxel 3.2 mg/ml): <0.5 h
Stability (Examples 28-35: 10% Dextrose, polymer 0.125 mg/ml, sodium DOC 0.125 mg/ml, pH 6.4-6.8, paclitaxel 4.0 mg/ml): <0.25 h
Stability (Examples 28-35: 10% Dextrose, polymer 0.125 mg/ml, sodium DOC 0.125 mg/ml, pH 6.4-6.8, paclitaxel 10.0 mg/ml): <0.083 h
Stability (Examples 28-35: 10% Dextrose, polymer 0.2 mg/ml, sodium DOC 0.2 mg/ml, pH 6.4-6.8, paclitaxel 0.80 mg/ml): <3 h
Stability (Examples 28-35: 10% Dextrose, polymer 0.3 mg/ml, sodium DOC 0.3 mg/ml, pH 6.4-6.8, paclitaxel 0.50 mg/ml): >6 h
Stability (Examples 28-35: 10% Dextrose, polymer 0.3 mg/ml, sodium DOC 0.3 mg/ml, pH 6.4-6.8, paclitaxel 0.60 mg/ml): <6 h
Stability (Examples 28-35: 10% Dextrose, polymer 0.3 mg/ml, sodium DOC 0.3 mg/ml, pH 6.4-6.8, paclitaxel 0.70 mg/ml): <4 h
Stability (Examples 28-35: 10% Dextrose, polymer 0.3 mg/ml, sodium DOC 0.3 mg/ml, pH 6.4-6.8, paclitaxel 0.80 mg/ml): <2 h
Stability (Examples 36-40, row 1: 10% Dextrose, polymer 0.3 mg/ml, sodium DOC 0 mg/ml, pH 6.4-6.8, paclitaxel 0.60 mg/ml): <0.5 h
Stability (Examples 36-40, row 2: 10% Dextrose, polymer 0.3 mg/ml, sodium DOC 0.10 mg/ml, pH 6.4-6.8, paclitaxel 0.60 mg/ml): <1 h
Stability (Examples 36-40, row 3: 10% Dextrose, polymer 0.3 mg/ml, sodium DOC 0.15 mg/ml, pH 6.4-6.8, paclitaxel 0.60 mg/ml): <4 h
Stability (Examples 36-40, row 4: 10% Dextrose, polymer 0.3 mg/ml, sodium DOC 0.2 mg/ml, pH 6.4-6.8, paclitaxel 0.60 mg/ml): >8 h
Stability (Examples 36-40, row 5: 10% Dextrose, polymer 0.3 mg/ml, sodium DOC 0.25 mg/ml, pH 6.4-6.8, paclitaxel 0.60 mg/ml): >8 h
Compound: CC(=O)O[C@H]1C(=O)[C@@]2(C)[C@H]([C@H](OC(=O)c3ccccc3)[C@]3(O)C[C@H](OC(=O)[C@H](O)[C@@H](NC(=O)c4ccccc4)c4ccccc4)C(C)=C1C3(C)C)[C@]1(OC(C)=O)CO[C@@H]1C[C@@H]2O [Paclitaxel, paclitaxel]
